Values joined by “and” are separate entries in the source; they are usually repeats but may differ in a detail not shown here. Identical values can stand only once.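 Cultured in 96-well plates, cells were exposed to test compound for 48 hours across five concentrations. Here, GI50 denotes the concentration required for 50% inhibition of growth. TGI marks complete inhibition of growth.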
Assays:
Experiment in all cases: NCI-60 cell line screen, 48 h
CCRF-CEM leukemia = tested on: CCRF-CEM leukemia
HCT-15 colon = tested on: HCT-15 colon
HOP-62 NSCLC = tested on: HOP-62 NSCLC
IGROV1 ovarian = tested on: IGROV1 ovarian
NCI/ADR-RES ovarian = tested on: NCI/ADR-RES ovarian
SK-MEL-2 melanoma = tested on: SK-MEL-2 melanoma
SK-MEL-28 melanoma = tested on: SK-MEL-28 melanoma
SK-MEL-5 melanoma = tested on: SK-MEL-5 melanoma
SNB-19 CNS = tested on: SNB-19 CNS
SNB-75 CNS = tested on: SNB-75 CNS

Row | SMILES | GI50 (CCRF-CEM leukemia) | TGI (CCRF-CEM leukemia) | GI50 (HCT-15 colon) | TGI (HCT-15 colon) | GI50 (HOP-62 NSCLC) | TGI (HOP-62 NSCLC) | GI50 (IGROV1 ovarian) | TGI (IGROV1 ovarian) | GI50 (NCI/ADR-RES ovarian) | TGI (NCI/ADR-RES ovarian) | GI50 (SK-MEL-2 melanoma) | TGI (SK-MEL-2 melanoma) | GI50 (SK-MEL-28 melanoma) | TGI (SK-MEL-28 melanoma) | GI50 (SK-MEL-5 melanoma) | TGI (SK-MEL-5 melanoma) | GI50 (SNB-19 CNS) | TGI (SNB-19 CNS) | GI50 (SNB-75 CNS) | TGI (SNB-75 CNS)
1 | CC1=C(CCC(C)NCc2ccc(OCCCN3CCCCC3)cc2)C(C)(C)CCC1 (stereo unspecified) | 1.54 µM | 4.7 µM | 0.575 µM | 2.03 µM | 1.84 µM | 3.64 µM | 1.68 µM | 3.89 µM | 1.72 µM | 3.47 µM | 1.49 µM | 3.08 µM | 1.38 µM | 2.83 µM | 1.68 µM | 3.06 µM | 2.01 µM | 4.26 µM | 1.39 µM | 2.72 µM
2 | O=c1c(O)c(-c2ccc(O)c(O)c2)oc2cc(O)cc(O)c12 | 10.7 µM | > 100 µM and 87.7 µM | 10.1 µM | > 100 µM | 15.6 µM | > 100 µM | 11.5 µM | > 100 µM | 12.8 µM | 63.8 µM | 15.1 µM | 47.3 µM and > 100 µM | 17.9 µM | > 100 µM | 9.24 µM | 44 µM and > 100 µM | 13.1 µM | > 100 µM | 4.42 µM | 39.2 µM and > 100 µM
3 | c1ccc2[nH]c(-c3cc(-c4ccc5c(c4)OCO5)n[nH]3)nc2c1 | 2.52 µM | 22.4 µM | 3.86 µM | 20.3 µM | 8.46 µM | 21.8 µM | 3.66 µM | 15.9 µM | 4.08 µM | 27.1 µM | – | – | 4.85 µM | 18.5 µM | 1.53 µM | 3.55 µM | 5.92 µM | 25.6 µM | 10.1 µM | 23.7 µM
4 | COc1cccc(-c2cc3c4c(nc5ccccc53)C(=O)c3cccnc3-c4n2)c1 | – | – | 1.52 µM | 4.44 µM | 4.2 µM | 12.3 µM | 3.37 µM | 14.4 µM | 2.22 µM | 7.92 µM | 1.18 µM | 4.16 µM | 10.2 µM | 22.3 µM | 0.578 µM | 1.76 µM | 4.2 µM | 11.2 µM | 2.32 µM | 5.71 µM
5 | Nc1c(C(=O)c2cccc(-c3cccnc3)c2)cnn1-c1ccc(F)cc1F | 10.2 µM | > 25 µM | 1.11 µM | > 25 µM | 5.49 µM | > 25 µM | 2.06 µM | > 25 µM | 1.2 µM | > 21.9 µM | 3.87 µM | > 18.4 µM | 10.1 µM | > 25 µM | 1.8 µM | 13.8 µM | 11.7 µM | > 25 µM | 5.33 µM | > 25 µM
6 | N#CSCc1ccc(Cl)c(CSC#N)c1 | 0.103 µM | 23.6 µM | 0.143 µM | 25.1 µM | 7.25 µM | > 66.9 µM | 5.9 µM | 49.8 µM | 1.9 µM | > 60.9 µM | 16.2 µM | 73 µM | 3.58 µM | 22.4 µM | 0.33 µM | 12.2 µM | 10.5 µM | > 100 µM | 0.601 µM | 59.9 µM

— PubChem BioAssay (NCI)
